Reference: the supplement of paper PMC10307832

Experiments:
Test in all cases: relative viability (nuclei count vs DMSO), 5 days (fraction); higher = more cells survive
[1] = compound: Cn1cc(-c2cnn3c(N)c(Br)c([C@@H]4CCCNC4)nc23)cn1
How it was run: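 On vehicle-anchored 1536-well plates, lung cancer cell lines held overnight at 37 °C were pinned with five library-drug doses (not always all listed) spaced by √10. With no medium change over 5 days, they were then fixed, permeabilised and Hoechst-stained in one step and imaged at 4×. MetaXpress counted nuclei, and viability is the median across plates of treated-well over vehicle-well nuclei. Acceptance needed control CV below 25% and at least one doubling.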

[2] = compound: Cn1cc(-c2cnn3c(N)c(Br)c([C@@H]4CCCNC4)nc23)cn1 + CC1(C)CCC(c2ccc(Cl)cc2)=C(CN2CCN(c3ccc(C(=O)NS(=O)(=O)c4ccc(N[C@H](CCN5CCOCC5)CSc5ccccc5)c(S(=O)(=O)C(F)(F)F)c4)cc3)CC2)C1 [Navitoclax] (partner 0.5 µM)
How it was run: (§1)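 Relative viability equals treated-well nuclei counts divided by vehicle-well nuclei counts. Counts came from 4× images of lung cancer cell lines grown in 1536-well plates for 5 days after pin-tool dosing on the day after seeding. Dosing used one drug alone or a fixed anchor-drug dose plus five library-drug doses (not always all listed) in √10 steps, and values are medians of duplicate plates.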

[3] = compound: Cn1cc(-c2cnn3c(N)c(Br)c([C@@H]4CCCNC4)nc23)cn1 + Cc1cc(Nc2cc(N3CCN(C)CC3)nc(Sc3ccc(NC(=O)C4CC4)cc3)n2)n[nH]1 [Tozasertib] (partner 0.1 µM)
How it was run: as §1

[4] = compound: Cn1cc(-c2cnn3c(N)c(Br)c([C@@H]4CCCNC4)nc23)cn1 + N=C(N)NC(=N)NCCc1ccccc1 [Phenformin] (partner 250 µM)
How it was run: as §1

| Cell Line | relative viability ([1]; 0.05 µM) | relative viability ([1]; 0.1581 µM) | relative viability ([1]; 0.5 µM) | relative viability ([1]; 1.581 µM) | relative viability ([1]; 5 µM) | relative viability ([2]; first compound 0.05 µM) | relative viability ([2]; first compound 0.1581 µM) | relative viability ([2]; first compound 0.5 µM) | relative viability ([2]; first compound 1.581 µM) | relative viability ([2]; first compound 5 µM) | relative viability ([3]; first compound 0.1581 µM) | relative viability ([3]; first compound 0.5 µM) | relative viability ([3]; first compound 1.581 µM) | relative viability ([3]; first compound 5 µM) | relative viability ([4]; first compound 0.1581 µM) | relative viability ([4]; first compound 0.5 µM) | relative viability ([4]; first compound 1.581 µM) | relative viability ([4]; first compound 5 µM) | relative viability ([3]; first compound 0.05 µM) | relative viability ([4]; first compound 0.05 µM) |
| --- | --- | --- | --- | --- | --- | --- | --- | --- | --- | --- | --- | --- | --- | --- | --- | --- | --- | --- | --- | --- |
| NCI-H1650 | 0.862 | 1.08 | 1.12 | 0.707 | 0.494 | 1.27 | 1.23 | 1.25 | 0.845 | 0.67 | 0.408 | 0.33 | 0.3 | 0.261 | 0.505 | 0.403 | 0.33 | 0.218 |  |  |
| NCI-H1651 | 1.01 | 0.993 | 0.917 | 0.783 | 0.503 | 1.06 | 1.36 | 0.865 | 0.555 | 0.408 | 0.721 | 0.641 | 0.429 | 0.176 | 0.336 | 0.318 | 0.223 | 0.173 | 0.586 | 0.331 |
| NCI-H1666 | 1.02 | 1.04 | 1.02 | 0.981 | 0.875 | 0.906 | 0.956 | 0.871 | 0.829 | 0.842 | 0.589 | 0.606 | 0.522 | 0.511 | 0.552 | 0.573 | 0.549 | 0.593 | 0.608 | 0.536 |
| NCI-H1734 | 0.916 | 1.1 | 0.963 | 0.78 | 0.793 | 0.885 | 0.906 | 0.918 | 0.57 | 0.733 | 0.25 | 0.284 | 0.213 | 0.211 | 0.457 | 0.373 | 0.349 | 0.319 | 0.214 | 0.368 |
| NCI-H1755 | 1.07 | 1.06 | 1 | 0.887 | 0.882 | 1.12 | 1.03 | 0.961 | 0.994 | 0.969 | 0.619 | 0.648 | 0.54 | 0.489 | 0.664 | 0.603 | 0.652 | 0.597 | 0.715 | 0.629 |
| NCI-H1793 | 1.07 | 1.12 | 0.927 | 0.91 | 0.786 | 0.43 | 0.517 | 0.386 | 0.383 | 0.292 | 0.806 | 0.282 | 0.341 | 0.2 | 0.465 | 0.435 | 0.328 | 0.252 | 0.39 | 0.322 |
| NCI-H1915 | 0.984 | 0.998 | 0.971 | 0.868 | 0.969 | 0.796 | 0.805 | 0.736 | 0.765 | 0.775 | 0.493 | 0.44 | 0.359 | 0.411 | 0.377 | 0.36 | 0.357 | 0.379 | 0.47 | 0.344 |
| NCI-H1944 | 0.947 | 1.07 | 0.929 | 0.713 | 0.481 | 0.92 | 1.01 | 1.05 | 1.01 | 0.858 | 0.273 | 0.255 | 0.241 | 0.21 | 0.199 | 0.198 | 0.194 | 0.186 | 0.263 | 0.212 |
| NCI-H1975 | 1.03 | 0.922 | 0.908 | 0.803 | 0.847 | 1.21 | 1.14 | 1.01 | 0.908 | 0.989 | 0.757 | 0.63 | 0.532 | 0.51 | 0.435 | 0.443 | 0.338 | 0.356 | 0.868 | 0.44 |
| NCI-H1993 | 0.846 | 0.942 | 0.955 | 0.716 | 0.794 | 0.793 | 0.898 |  | 0.873 | 0.831 | 0.602 | 0.463 | 0.513 | 0.538 | 0.536 | 0.412 | 0.481 | 0.513 | 0.62 | 0.522 |
| NCI-H2009 | 1.03 | 1.05 | 0.981 | 0.931 | 0.858 | 1.16 | 1.28 | 1.1 | 1.1 | 1 | 0.702 | 0.651 | 0.565 | 0.448 | 0.507 | 0.453 | 0.434 | 0.409 | 0.745 | 0.487 |
| NCI-H2023 | 0.982 | 0.89 | 0.705 | 0.304 | 0.167 | 1.06 | 0.727 | 0.789 | 0.304 | 0.192 | 0.254 | 0.238 | 0.15 | 0.122 | 0.368 | 0.245 | 0.203 | 0.129 | 0.361 | 0.426 |
| NCI-H2085 | 0.996 | 1.12 | 1.04 | 0.932 | 0.853 | 1.3 | 1.13 | 1.18 | 1.09 | 0.943 | 0.928 | 0.866 | 0.811 | 0.736 | 0.746 | 0.737 | 0.626 | 0.516 | 0.807 | 0.692 |
| NCI-H2087 | 1.15 | 1.31 | 1.02 | 0.948 | 0.898 | 1.02 | 1.14 | 1.04 | 1.05 | 0.948 | 0.253 | 0.241 | 0.263 | 0.174 | 0.479 | 0.483 | 0.485 | 0.507 | 0.222 | 0.47 |
| NCI-H2126 | 0.986 | 1.07 | 1 | 0.899 | 0.95 | 0.915 | 0.883 | 0.861 | 0.804 | 0.863 | 0.819 | 0.774 | 0.611 | 0.644 | 0.543 | 0.51 | 0.491 | 0.47 | 0.809 | 0.492 |
| NCI-H2170 | 0.991 | 1.03 | 0.93 | 1.01 | 1.07 | 0.584 | 0.554 | 0.453 | 0.527 | 0.713 | 0.789 | 0.644 | 0.894 | 0.855 | 0.441 | 0.429 | 0.429 | 0.429 | 0.78 | 0.415 |
| NCI-H2228 | 1.08 | 1.1 | 0.927 | 0.6 | 0.554 | 1.09 | 1.12 | 1.13 | 0.64 | 0.481 | 0.221 | 0.205 | 0.211 | 0.124 | 0.256 | 0.373 | 0.184 | 0.194 | 0.249 | 0.274 |
| NCI-H2347 | 0.987 | 1.09 | 1.2 | 0.953 | 0.853 | 0.742 | 0.818 | 0.735 | 0.576 | 0.678 | 0.563 | 0.518 | 0.49 | 0.44 | 0.396 | 0.406 | 0.449 | 0.337 | 0.539 | 0.338 |
| NCI-H2405 | 0.935 | 1.01 | 0.959 | 0.983 | 0.769 | 0.815 | 0.976 | 0.904 | 0.867 | 0.624 | 0.784 | 0.723 | 0.743 | 0.498 | 0.522 | 0.398 | 0.363 | 0.318 | 0.733 | 0.384 |
| NCI-H3122 | 1.03 | 1.03 | 1.03 | 1.06 | 1.1 | 1.06 | 1.05 | 1.05 | 1.03 | 1.11 | 0.403 | 0.401 | 0.283 | 0.329 | 0.62 | 0.383 | 0.366 | 0.383 | 0.508 | 0.374 |
| PC-3 [JPC-3] | 0.957 | 1.01 | 1.01 | 1.02 | 1.03 | 0.75 | 0.899 | 0.735 | 0.832 | 0.899 | 0.986 | 0.94 | 0.75 | 0.91 | 0.476 | 0.443 | 0.448 | 0.455 | 0.812 | 0.444 |
| PC-14 | 1.04 | 1.01 | 1.01 | 0.707 | 0.425 | 1.06 | 1.14 | 0.924 | 0.69 | 0.444 | 0.458 | 0.594 | 0.438 | 0.274 | 0.429 | 0.668 | 0.388 | 0.211 | 0.634 | 0.515 |
| RERF-LC-KJ | 1.05 | 1.01 | 1.01 | 0.859 | 0.896 | 1.2 | 0.927 | 0.884 | 0.707 | 0.678 | 0.502 | 0.501 | 0.346 | 0.384 | 0.46 | 0.41 | 0.408 | 0.412 | 0.52 | 0.41 |
| SK-LU-1 | 1.18 | 0.696 | 0.809 | 0.432 | 0.268 | 0.717 |  | 0.254 | 0.188 | 0.186 | 0.193 | 0.192 | 0.201 | 0.169 | 0.426 | 0.299 | 0.254 | 0.184 | 0.35 | 0.515 |
| SK-MES-1 | 1.09 | 1.08 | 0.979 | 0.606 | 0.34 | 1.29 | 1.25 | 1.11 | 1.02 | 0.352 | 0.675 | 0.57 | 0.268 | 0.137 | 0.735 | 0.663 | 0.419 | 0.188 | 0.987 | 0.664 |
| SW 1573 | 0.93 | 1.07 | 1.12 | 0.924 | 0.894 | 0.976 | 1.07 | 1.08 | 0.853 | 1.07 | 0.175 | 0.17 | 0.176 | 0.149 | 0.381 | 0.325 | 0.215 | 0.219 | 0.175 | 0.388 |
| UMC-11 | 1.08 | 0.873 | 0.856 | 0.788 | 0.565 | 0.316 | 0.268 | 0.298 | 0.271 | 0.229 | 0.204 | 0.217 | 0.205 | 0.187 | 0.309 | 0.32 | 0.305 | 0.274 | 0.276 | 0.337 |
